Data published in patent US20260364030A1, “NOVEL SELECTIVE INHIBITORS OF LYSYL OXIDASES” (Syntara Limited, priority 2022, published 2026).

How the values were obtained:
[1] = tested on: systemic LOX; conditions: mouse, in vivo; cited from earlier work
[2] = tested on: ovarian cancer; conditions: ovarian cancer genetically engineered mouse models; cited from earlier work
[3] = tested on: desmoplastic tumour; conditions: mouse, in vivo; cited from earlier work
[4] = tested on: LOX; conditions: CIA rats; cited from earlier work
[5] = molecular target: T1, LOXL2 (Homo sapiens, UniProt Q9Y4K0); assay: Time-dependent inhibition of LOXL2, Amplex Red oxidation assay; assay type: biochemical; conditions: for IC50: 37 °C
T1 sequence (Q9Y4K0 26-774): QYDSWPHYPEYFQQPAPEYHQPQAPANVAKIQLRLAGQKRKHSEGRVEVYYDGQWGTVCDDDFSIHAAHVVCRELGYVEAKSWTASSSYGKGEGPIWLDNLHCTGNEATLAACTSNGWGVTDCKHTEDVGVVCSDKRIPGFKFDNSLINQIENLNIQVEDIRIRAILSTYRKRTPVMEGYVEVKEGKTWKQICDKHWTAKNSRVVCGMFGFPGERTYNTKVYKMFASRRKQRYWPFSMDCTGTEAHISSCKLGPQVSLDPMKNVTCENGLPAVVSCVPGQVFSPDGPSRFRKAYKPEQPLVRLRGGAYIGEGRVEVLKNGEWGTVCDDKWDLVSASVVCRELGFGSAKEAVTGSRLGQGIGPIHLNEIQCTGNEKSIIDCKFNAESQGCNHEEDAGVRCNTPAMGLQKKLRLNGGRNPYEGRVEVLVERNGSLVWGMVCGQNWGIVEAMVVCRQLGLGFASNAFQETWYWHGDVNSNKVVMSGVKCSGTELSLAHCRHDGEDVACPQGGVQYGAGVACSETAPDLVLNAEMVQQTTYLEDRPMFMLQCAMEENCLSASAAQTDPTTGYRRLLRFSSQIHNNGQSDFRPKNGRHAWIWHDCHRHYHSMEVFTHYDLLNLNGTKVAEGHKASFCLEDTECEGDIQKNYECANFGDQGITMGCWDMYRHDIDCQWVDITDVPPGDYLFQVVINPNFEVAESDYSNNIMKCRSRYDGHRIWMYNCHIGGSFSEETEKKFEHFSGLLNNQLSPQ
Protocol: The time dependent inhibitory effects of the Compound 1 of the present invention were tested against the given LOXL1 preparation and LOXL2 preparation using a method based on the detection of hydrogen peroxide with an Amplex Red oxidation assay [Zhou et al. 1997]. The assay was developed for use in either 384 or 96 well format. Briefly, in a standard black, clear bottom 384 well plate assay 25 µL of a dilution of any of the isoenzymes and orthologues in 1.2 M urea, 50 mM sodium borate buffer (pH 8.2) were added into each well in the presence of […] and 0.5 mM pargyline (to inhibit SSAO and MAO-B and MAO-A, respectively; not necessary if the enzyme is from a recombinant or purified form). Test compound (Compound 1) was dissolved in DMSO and tested in a Concentration Response Curve (CRC) with 11 data points, typically in the micromolar or nanomolar range after incubation with the enzyme for different time points at 37 °C. 25 μL of a reaction mixture containing twice the KM concentration of putrescine (Sigma Aldrich, e.g. 20 mM for LOXL1 or 10 mM for LOXL2), 120 µM Amplex Red (Thermo Fisher Scientific) and 1.5 U/mL horseradish peroxidase (Sigma Aldrich) prepared in 1.2 M urea, 50 mM sodium borate buffer (pH 8.2) were then added to the corresponding wells. The fluorescence (RFU) was read every 2.5 min for 30 min at 37 °C, excitation 544 nm and emission 590 nm (Optima; BMG labtech). The slope/min of the kinetics for each well was calculated using MARS data analysis software (BMG labtech) and this value was used to deduce the IC50 value (Dotmatics).

[6] = molecular target: T2, Human DAO (Homo sapiens, UniProt P19801); assay: Inhibition of human recombinant DAO; assay type: biochemical; conditions: 2 hours incubation; substrate putrescine 200 μM
T2 construct: Prof; Boehm, Department of Clinical Pharmacology, Medical University, Vienna (gift)

[7] = Solubility and stability of test item in DMSO vehicle; assay type: physicochemical; conditions: for Stability in vehicle DMSO: at 20 μg/mL and 50000 μg/mL
Protocol: The test item was soluble in DMSO at 50 mg/mL and was used as the vehicle of choice in the mutation assay.

[8] = tested on: Salmonella typhimurium TA100; assay: Bacterial reverse mutation test, preliminary toxicity test (direct plate incorporation)
Protocol: In the preliminary toxicity test, for selection of test doses for the mutation assay, Salmonella typhimurium, TA100 was exposed to the test item at 39.0625, 78.125, 156.25, 312.5, 625, 1250, 2500 and 5000 μg/plate along with a DMSO control using direct plate incorporation.

[9] = tested on: skin fibrosis; assay: Mouse model of sclerosis (bleomycin-induced skin fibrosis); assay type: in vivo, male C57BL/6 mouse; conditions: topical formulation, various concentrations, from day 3; histology after 21 days; FIG. 3, ****=P≤0.0001
Protocol: Subcutaneous bleomycin (0.1 U/kg) was administered every second day (for 21 days total) to male C57BL/6 to induce skin fibrosis as a model of sclerosis. The lesions were treated, from day 3, with either Vehicle or various concentrations of Compound 1 in a topical formulation. Histology was completed after 21 days.

[10] = tested on: TA98, TA100, TA1535 and TA1537 strains of Salmonella typhimurium and WP2uvrA (pKM101) strain of Escherichia coli; assay: Bacterial Reverse Mutation Test, initial and confirmatory mutation assay
Protocol: The test item Compound 1 was tested for its mutagenic potential in the bacterial reverse mutation assay. The study was conducted using TA98, TA100, TA1535 and TA1537 strains of Salmonella typhimurium and WP2uvrA (pKM101) strain of Escherichia coli in three phases; a preliminary toxicity test, an initial mutation assay and a confirmatory mutation assay. The bacterial tester strains were exposed to the test item in the presence and absence of metabolic activation system (S9 fraction prepared from Aroclor 1254 induced rat liver).
The bacterial tester strains were exposed to the test item in triplicate at 50, 158, 500, 1581 and 5000 μg/plate. The initial mutation assay was conducted using the direct plate incorporation mode of exposure whereas the confirmatory mutation assay was carried out using the pre-incubation mode of exposure. The vehicle control (DMSO) and the appropriate positive controls were tested simultaneously. The mean and standard deviation of numbers of revertant colonies were calculated for each test dose and the controls for all the tester strains.

T2 sequence (P19801 20-751): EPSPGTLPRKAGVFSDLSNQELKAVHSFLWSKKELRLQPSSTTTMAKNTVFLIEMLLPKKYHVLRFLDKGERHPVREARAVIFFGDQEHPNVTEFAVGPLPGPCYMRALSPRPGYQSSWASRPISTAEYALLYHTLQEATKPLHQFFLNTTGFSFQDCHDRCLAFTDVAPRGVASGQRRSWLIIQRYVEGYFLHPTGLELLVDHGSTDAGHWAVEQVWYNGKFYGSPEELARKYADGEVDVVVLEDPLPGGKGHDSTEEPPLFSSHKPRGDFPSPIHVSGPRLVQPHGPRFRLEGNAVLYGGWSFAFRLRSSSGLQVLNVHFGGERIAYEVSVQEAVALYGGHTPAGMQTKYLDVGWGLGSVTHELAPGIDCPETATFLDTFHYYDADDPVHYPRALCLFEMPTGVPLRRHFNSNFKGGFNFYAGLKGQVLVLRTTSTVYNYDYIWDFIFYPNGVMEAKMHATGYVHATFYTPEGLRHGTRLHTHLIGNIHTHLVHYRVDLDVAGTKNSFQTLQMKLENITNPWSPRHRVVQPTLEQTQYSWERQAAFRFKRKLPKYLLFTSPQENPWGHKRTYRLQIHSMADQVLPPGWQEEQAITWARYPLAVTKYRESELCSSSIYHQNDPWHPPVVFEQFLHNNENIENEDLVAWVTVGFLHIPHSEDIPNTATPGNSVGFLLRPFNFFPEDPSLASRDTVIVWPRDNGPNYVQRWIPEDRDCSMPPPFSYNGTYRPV

IC50 ([5]; 0′ incubation) [nM]	IC50 ([5]; 15′ incubation) [nM]	IC50 ([5]; 30′ incubation) [nM]	IC50 ([5]; 1 h incubation) [nM]	IC50 ([5]; 2 h incubation) [nM]	IC50 ([5]; 4 h incubation) [nM]	IC50 [6] [nM]	solubility ([7]; dmso, organic solvent or mixture) [mg/mL]	Stability in vehicle DMSO ([7]; refrigerated temperature) [days]	Stability in vehicle DMSO ([7]; room temperature) [days]	Structure (SMILES)	Metastasis and survival [1]	Survival and lung metastasis [2]	Metastatic load and survival [3]	Effect on inflammation, synovial hyperplasia, angiogenesis, MMP-2 and MMP-9 expression [4]	Time dependent LOXL2 inhibition ([5]; apparent potency increasing with time)	Toxicity to the tester strain (bacterial background lawn, revertant colony counts) ([8]; 39.0625-5000 μg/plate, presence and absence of metabolic activation)	Precipitation on the basal agar plates ([8]; up to 5000 μg/plate, presence or absence of metabolic activation)	Average collagen score (histology) [9]	Mutagenic increase in revertant colonies ([10]; 50-5000 μg/plate, with and without metabolic activation (S9), initial and confirmatory assay, all tester strains)	Mutagenicity ([10]; up to the top dose 5000 μg/plate)
										N#CCCN [BAPN, β-aminopropionitrile, reference compound]	reducing metastasis and increasing survival	significantly increased survival and decreased lung metastasis	lower metastatic load and increased survival	attenuate inflammation, synovial hyperplasia, angiogenesis and expression of MMP-2 and MMP-9						
14700	5580	1710	890	410	310	> 100000	≥ 50	≥ 4	≥ 0.25	NC/C(=C\F)CS(=O)(=O)c1ccccc1 [Compound 1, (E)-3-fluoro-2-((phenylsulfonyl)methyl)prop-2-en-1-amine]					time dependent LOXL1 and LOXL2 inhibition	did not exhibit toxicity to the tester strain	did not precipitate on the basal agar plates	significant improvement in the average collagen score	did not show any positive mutagenic increase	not mutagenic
